# Where “and” joins values, the source holds several entries; their conditions need not be identical. Identical values can stand only once.
# Biological target: T1, AHR (Mus musculus, UniProt P30561)
# T1 sequence (P30561 1-848 P471L/N533S/M589L): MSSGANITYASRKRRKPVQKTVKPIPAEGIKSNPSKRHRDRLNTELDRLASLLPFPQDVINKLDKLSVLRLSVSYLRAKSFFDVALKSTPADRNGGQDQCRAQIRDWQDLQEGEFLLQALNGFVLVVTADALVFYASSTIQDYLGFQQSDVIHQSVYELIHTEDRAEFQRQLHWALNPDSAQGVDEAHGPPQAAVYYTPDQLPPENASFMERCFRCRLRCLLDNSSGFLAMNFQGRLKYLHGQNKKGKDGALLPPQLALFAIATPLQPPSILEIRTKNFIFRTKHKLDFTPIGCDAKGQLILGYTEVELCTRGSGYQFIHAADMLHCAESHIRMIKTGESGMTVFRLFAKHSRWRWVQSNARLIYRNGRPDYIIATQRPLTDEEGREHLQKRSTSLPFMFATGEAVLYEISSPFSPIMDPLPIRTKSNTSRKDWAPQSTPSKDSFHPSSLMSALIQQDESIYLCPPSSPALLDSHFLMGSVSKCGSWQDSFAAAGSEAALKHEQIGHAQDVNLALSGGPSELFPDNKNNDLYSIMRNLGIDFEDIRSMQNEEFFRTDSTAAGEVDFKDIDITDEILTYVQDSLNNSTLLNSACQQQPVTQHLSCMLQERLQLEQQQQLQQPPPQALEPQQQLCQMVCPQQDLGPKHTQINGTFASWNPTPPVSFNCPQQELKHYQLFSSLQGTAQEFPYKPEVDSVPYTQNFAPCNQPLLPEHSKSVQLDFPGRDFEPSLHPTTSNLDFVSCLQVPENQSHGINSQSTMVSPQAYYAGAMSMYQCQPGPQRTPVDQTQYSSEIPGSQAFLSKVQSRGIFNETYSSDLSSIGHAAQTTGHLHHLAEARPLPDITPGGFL
# Test: In vitro assay 3: antagonism in mouse cell line (AHR transactivation, firefly luciferase reporter, kynurenic acid prestimulated)
# Assay type: cell-based
# Conditions: Hepa 1c1c7 cells, 200 μM kynurenic acid, 20 hours, firefly luciferase reporter, read-out: AHR Antagonism Mouse IC50
# In short: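 Luminescence from an AHR-dependent DRE-luciferase reporter, stably integrated in mouse cells, quantifies blockade of kynurenic acid-driven activation. Unstimulated cells mark maximal inhibition; normalization uses both control types, and multiply tested compounds carry mean or median values.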
row,IC50 [nM],SMILES
1,8.28,"O=C1NCCNC[C@@H]1Nc1nc2c(Br)cccc2c2nc(-c3ccc(F)cc3)nn12 [Example 973, (6S)-6-{[7-bromo-2-(4-fluorophenyl)[1,2,4]triazolo[1,5-c]quinazolin-5-yl]amino}-1,4-diazepan-5-one]"

# Same assay, conditions: mouse Hepa 1c1c7 cells, 200 μM kynurenic acid, 20 hours, read-out: AHR Antagonism Mouse IC50
row,IC50 [nM],SMILES
1,196,"CCCNC(=O)[C@@H](C)Nc1nc2ccccc2c2nc(-c3cc(Cl)ccc3OC(F)(F)F)nn12 [Example 502, N^2-{2-[5-chloro-2-(trifluoromethoxy)phenyl][1,2,4]triazolo[1,5-c]quinazolin-5-yl}-N-propyl-D-alaninamide]"
2,3.16,"O=C1NCCNC[C@H]1Nc1nc2c(F)cccc2c2nc(-c3ccc(F)cc3)nn12 [Example 427, (6R)-6-{[7-fluoro-2-(4-fluorophenyl)[1,2,4]triazolo[1,5-c]quinazolin-5-yl]amino}-1,4-diazepan-5-one]"
3,0.927,"O=C1NCCCC[C@H]1Nc1nc2ccccc2c2nc(-c3ccc(F)nc3)nn12 [Example 639, (3R)-3-{[2-(6-fluoropyridin-3-yl)[1,2,4]triazolo[1,5-c]quinazolin-5-yl]amino}azepan-2-one]"

# The remaining lines, values behind:
row,SMILES,IC50 [nM]
1,"O=C1NCCCC1Nc1nc2ccccc2c2nc(-c3ccc(F)cc3)nn12 (stereo not drawn) [Example 72, 3-{[2-(4-fluorophenyl)[1,2,4]triazolo[1,5-c]quinazolin-5-yl]amino}piperidin-2-one]",10
2,"O=C1NCCNCC1Nc1nc2cccc(Cl)c2c2nc(-c3ccc(F)cc3)nn12 (stereo not drawn) [Example 293, 6-{[10-chloro-2-(4-fluorophenyl)[1,2,4]triazolo[1,5-c]quinazolin-5-yl]amino}-1,4-diazepan-5-one]",56.1
3,"O=C1NCCNC[C@H]1Nc1nc2ccccc2c2nc(-c3cnn(CCO)c3)nn12 [Example 414, (6R)-5-({2-[1-(2-hydroxyethyl)-1H-pyrazol-4-yl][1,2,4]triazolo[1,5-c]quinazolin-5-yl}amino)-1,4-diazepan-5-one]",> 20000
4,"COc1ccc(-c2nc3c4ccccc4nc(N[C@H](CO)C(N)=O)n3n2)cc1 [Example 26, N^2-[2-(4-methoxyphenyl)[1,2,4]triazolo[1,5-c]quinazolin-5-yl]-D-serinamide]",16.7
5,"COc1ccc(-c2nc3c4ccccc4nc(NC4CCCNC4=O)n3n2)cc1 (stereo not drawn) [Example 28, 3-{[2-(4-methoxyphenyl)[1,2,4]triazolo[1,5-c]quinazolin-5-yl]amino}piperidin-2-one]",6.56
6,"COc1ccc(-c2nc3c4cc(C)ccc4nc(N[C@@H]4CNCCNC4=O)n3n2)cc1 [Example 280, (6R)-6-{[2-(4-methoxyphenyl)-9-methyl[1,2,4]triazolo[1,5-c]quinazolin-5-yl]amino}-1,4-diazepan-5-one]",33.3
7,"O=C1NCCNC[C@H]1Nc1nc2ccccc2c2nc(-c3ccc(C(F)(F)F)cc3)nn12 [Example 259, (6R)-6-({2-[4-(trifluoromethyl)phenyl][1,2,4]triazolo[1,5-c]quinazolin-5-yl}amino)-1,4-diazepan-5-one]",0.644
8,"COc1cccc(-c2nc3c4ccccc4nc(N[C@H](CCSC)C(N)=O)n3n2)c1 [Example 96, N^2-[2-(3-methoxyphenyl)[1,2,4]triazolo[1,5-c]quinazolin-5-yl]-D-methioninamide]",269
9,"CC[C@@H](Nc1nc2ccccc2c2nc(-c3cccc(OC)c3)nn12)C(=O)O [Example 95, (2R)-2-{[2-(3-methoxyphenyl)[1,2,4]triazolo[1,5-c]quinazolin-5-yl]amino}butanoic acid]",399
10,"O=C1NCCCC[C@@H]1Nc1nc2c(Br)cccc2c2nc(-c3cccc(F)c3)nn12 [Example 209, (3S)-3-{[7-bromo-2-(3-fluorophenyl)[1,2,4]triazolo[1,5-c]quinazolin-5-yl]amino}azepan-2-one]",15.5

# Biological target: T2, AHR (Homo sapiens, UniProt P35869)
# T2 construct: U87 MG glioblastoma cells (ATCC #HTB-14) endogenously expressing AHR; endogenous in cells; host or cells: U87 MG glioblastoma cells (ATCC #HTB-14)
# T2 sequence (P35869 11-848): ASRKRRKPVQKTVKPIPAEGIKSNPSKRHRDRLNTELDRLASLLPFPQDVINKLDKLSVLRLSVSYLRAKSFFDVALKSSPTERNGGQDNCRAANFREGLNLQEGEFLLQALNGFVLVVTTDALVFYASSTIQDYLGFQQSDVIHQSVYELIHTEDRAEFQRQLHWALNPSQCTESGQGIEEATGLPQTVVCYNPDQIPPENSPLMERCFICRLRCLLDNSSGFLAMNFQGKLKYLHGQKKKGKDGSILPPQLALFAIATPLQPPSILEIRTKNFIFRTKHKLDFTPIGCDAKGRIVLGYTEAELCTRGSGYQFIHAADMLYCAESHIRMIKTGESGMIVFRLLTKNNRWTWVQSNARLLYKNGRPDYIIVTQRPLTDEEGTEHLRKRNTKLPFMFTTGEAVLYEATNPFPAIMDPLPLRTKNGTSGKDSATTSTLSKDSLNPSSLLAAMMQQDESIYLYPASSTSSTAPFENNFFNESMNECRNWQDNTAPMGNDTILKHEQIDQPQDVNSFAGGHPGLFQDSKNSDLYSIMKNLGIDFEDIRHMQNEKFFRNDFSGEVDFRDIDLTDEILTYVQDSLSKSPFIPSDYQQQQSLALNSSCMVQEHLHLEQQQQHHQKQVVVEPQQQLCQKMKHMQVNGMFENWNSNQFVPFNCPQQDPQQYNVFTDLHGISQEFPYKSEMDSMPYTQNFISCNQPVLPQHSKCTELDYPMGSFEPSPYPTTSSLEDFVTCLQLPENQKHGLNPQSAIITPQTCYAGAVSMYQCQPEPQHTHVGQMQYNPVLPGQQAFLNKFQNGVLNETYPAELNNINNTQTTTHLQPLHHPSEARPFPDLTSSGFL
# Test: In vitro assay 1: antagonism in human cell line (AHR transactivation, firefly luciferase reporter, kynurenic acid prestimulated)
# Assay type: cell-based
# Conditions: AHR Antagonism Human IC50 [M]
# Protocol: Examples were tested in selected biological assays one or more times. When tested more than once, data are reported as either average values or as median values, wherein • the average value, also referred to as the arithmetic mean value, represents the sum of the values obtained divided by the number of times tested, and • the median value represents the middle number of the group of values when ranked in ascending or descending order. If the number of values in the data set is odd, the median is the middle value. If the number of values in the data set is even, the median is the arithmetic mean of the two middle values.
# Transactivation assays were carried out in U87 MG glioblastoma cells (ATCC #HTB-14) endogenously expressing AHR. In addition the cells were stably transfected with an AHR inducible firefly luciferase reporter gene construct that carried AHR-binding sites (DRE) in its promoter and a renilla reporter gene construct with constitutively active promoter. Kynurenic acid is an endogenous AHR activating ligand and was used to prestimulate test cells prior to testing the antagonistic properties of compounds.
# As positive inhibition control cells supplemented with 150 μM kynurenic acid were incubated in presence of 5 μM Staurosporin. Normalization was done by positive and negative controls.
# Firefly luciferase and Renilla activity was determined by the DualGlo Luciferase Assay System (Promega, #2920). Renilla activity was used to assess toxic effects of compounds.
row,IC50,SMILES
1,> 2e-05 M,"CN1CCCC[C@H](Nc2nc3ccccc3c3nc(-c4ccc(Cl)cc4OC(F)F)nn23)C1=O [Example 530, (3S)-3-({2-[4-chloro-2-(difluoromethoxy)phenyl][1,2,4]triazolo[1,5-c]quinazolin-5-yl}amino)-1-methylazepan-2-one]"
2,3.22e-07 M,Cn1cc(-c2nc3c4cccc(C5(C(F)(F)F)CC5)c4nc(N[C@@H]4CNCCNC4=O)n3n2)cn1 [Example 430]
3,1.17e-07 M,"CN(C)c1ccccc1-c1nc2c3ccccc3nc(N[C@@H]3CCCCNC3=O)n2n1 [Example 455, (3R)-3-({2-[2-(dimethylamino)phenyl][1,2,4]triazolo[1,5-c]quinazolin-5-yl}amino)azepan-2-one]"
4,1.29e-09 M,"CC[C@@H](Nc1nc2ccccc2c2nc(-c3ccc(Cl)cc3OC(F)F)nn12)C(N)=O [Example 531, (2R)-2-({2-[4-chloro-2-(difluoromethoxy)phenyl][1,2,4]triazolo[1,5-c]quinazolin-5-yl}amino)butanamide]"
5,> 5.71e-06 M,"COc1ccc(-c2nc3c4cc(C5CC5)ccc4nc(N[C@@H]4CCCCNC4=O)n3n2)cc1 [Example 547, (3R)-3-{[9-cyclopropyl-2-(4-methoxyphenyl)[1,2,4]triazolo[1,5-c]quinazolin-5-yl]amino}azepan-2-one]"

# The next lines start with the compound.
row,SMILES,IC50
1,"COc1cccc(-c2nc3c4ccc(F)cc4nc(N[C@H]4CCNC4=O)n3n2)c1 [Example 149, (3S)-3-{[8-fluoro-2-(3-methoxyphenyl)[1,2,4]triazolo[1,5-c]quinazolin-5-yl]amino}pyrrolidin-2-one]",1.81e-07 M
2,"COc1ccc(-c2nc3c4ccc(C5CC5)cc4nc(N[C@@H]4CCCCNC4=O)n3n2)cc1 [Example 251, (3R)-3-{[8-Cyclopropyl-2-(4-methoxyphenyl)[1,2,4]triazolo[1,5-c]quinazolin-5-yl]amino}azepan-2-one]",3.04e-07 M
3,CCCCC(Nc1nc2ccccc2c2nc(-c3cccc(OC(F)(F)F)c3)nn12)C(N)=O (stereo not drawn) [Example 323],> 2e-05 M and 1.32e-05 M and 8.31e-06 M
4,"COc1cccc(-c2nc3c4ccc(C)cc4nc(N[C@@H]4CCCCNC4=O)n3n2)c1 [Example 145, (3R)-3-{[2-(3-methoxyphenyl)-8-methyl[1,2,4]triazolo[1,5-c]quinazolin-5-yl]amino}azepan-2-one]",3.17e-08 M
5,"Cc1cc(-c2nc3c4ccccc4nc(N[C@@H]4CCCCNC4=O)n3n2)cs1 [Example 352, (3R)-3-{[2-(5-methylthiophen-3-yl)[1,2,4]triazolo[1,5-c]quinazolin-5-yl]amino}azepan-2-one]",9.72e-10 M
